pEC50: −log10 of the molar value. *1 amine or outer side, *2 acyl side, *3 side chain or, on linkers, in order; H or OH if unused. Where a SMILES comes first, the peptide text is derived from it. Bridges are numbered along the chain shown (N, C = ends). [ ]: non-standard residue; d: D form. The star is where a group is joined. C20 diacid = O=C(O)CCCCCCCCCCCCCCCCCCC(=O)*; γGlu = O=C(O)[C@H](CCC(=O)[*:2])N[*:1]; Hyp = O=C(O)[C@@H]1C[C@@H](O)CN1; NMeI = CC[C@H](C)[C@H](NC)C(=O)O; Aad = N[C@@H](CCCC(=O)O)C(=O)O; Sar = CNCC(=O)O

The target in this assay is T1, human calcitonin receptor (hCTR2) (Homo sapiens, UniProt P30988).
T1 construct: expressed in transfected cells
T1 sequence (P30988 25-474): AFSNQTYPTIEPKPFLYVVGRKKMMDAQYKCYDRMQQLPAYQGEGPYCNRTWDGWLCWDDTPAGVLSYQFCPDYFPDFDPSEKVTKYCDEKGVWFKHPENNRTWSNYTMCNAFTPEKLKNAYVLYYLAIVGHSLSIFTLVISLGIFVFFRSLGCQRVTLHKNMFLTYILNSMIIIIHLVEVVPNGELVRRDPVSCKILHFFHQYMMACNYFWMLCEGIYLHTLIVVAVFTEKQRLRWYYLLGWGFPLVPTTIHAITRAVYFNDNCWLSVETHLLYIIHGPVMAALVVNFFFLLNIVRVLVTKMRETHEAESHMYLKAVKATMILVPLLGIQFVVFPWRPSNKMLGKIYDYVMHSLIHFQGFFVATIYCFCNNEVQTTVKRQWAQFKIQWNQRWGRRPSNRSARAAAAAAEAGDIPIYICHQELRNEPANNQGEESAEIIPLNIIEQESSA
Briefly: hCTR2 cAMP assay (AlphaScreen) in COS7 cells. Conditions: cAMP induction, COS7 cells expressing hCTR2; Table 1; read-out: hCTR2 EC50. Type of assay: cell-based. From the text:
The cell line COS7, originating from African Green Monkey kidney fibroblast cells, was used for establishment of the stable cell lines described below. The COS7 cellular background was used due to it being RAMP naïve, and as such it provides the best available system for testing of the monomeric hCTR and different heterodimeric amylin receptor subtypes functionally generated by introduction of the individual RAMPs.
A cell line expressing the human calcitonin receptor (hCTR2) was generated in the COS7 cellular background as stable clones. In brief, hCTR2 (GI: 4502547) was amplified by PCR using primers encoding terminal restriction sites for subcloning. The 5′-end primers additionally encoded a near Kozak consensus sequence to ensure efficient translation. The fidelity of the DNA encoding the receptor was confirmed by DNA sequencing. The PCR products encoding the receptor were subcloned into a mammalian expression vector containing a neomycin (G418) resistance marker. The mammalian expression vector encoding the receptor was transfected into COS7 cells by a standard liposome transfection method. 48 hours post-transfection, cells were seeded for limited dilution cloning and selected with 1 mg/ml G418 in the culture medium. After 3 weeks, surviving colonies of hCTR2-expressing cells were picked, propagated and tested in the amylin efficacy assay as described in Example 3 below. One hCTR2-expressing clone was chosen for compound profiling.
In vitro activity of test peptides at the hCTR2 and hAMYR3 receptors was assessed by measuring the induction of cAMP following stimulation of the receptor using the AlphaScreen® cAMP Assay kit from Perkin-Elmer.
Briefly, COS7 cells expressing hCTR2 (see Example 2, above) were seeded at 30-40,000 cells per well in 96-well microtiter plates coated with 0.01% poly-L-lysine, and grown for 1 day in culture in 100 μl growth medium [DMEM, 10% FCS, Penicillin (100 IU/ml), Streptomycin (100 μg/ml)]. On the day of analysis, growth medium was removed and the cells were washed once with 200 μl Tyrode buffer [Tyrode's Salts (9.6 g/I), 10 mM HEPES, pH 7.4]. Cells were incubated in 100 μl Tyrode buffer containing increasing concentrations of test peptides, 100 µM IBMX and 0.1% casein for 15 min at 37° C. The reaction was stopped by carefully decanting off the compound/buffer medium and replacing it with lysis/detection buffer (80 μl 0.1% w/v BSA, 5 mM HEPES, 0.3% v/v Tween-20 in deionized water). After incubation at room temperature for 10 min., the cAMP content of the resulting cell lysate was estimated according to the AlphaScreen® cAMP Assay manufacturer's instructions. EC50 values were estimated by computer-aided curve fitting using the 4-parameter logistic (4PL) non-linear model.

Regarding `CC[C@H](C)[C@@H](C(=O)N[C@@H](CC(C)C)C(=O)N[C@@H](CO)C(=O)N[C@@H](CO)C(=O)N[C@H](C(=O)N[C@@H](CCC(=O)O)C(=O)N[C@H](C(=O)NCC(=O)N[C@@H](CO)C(=O)N[C@@H](CC(N)=O)C(=O)N[C@H](C(=O)N1CCC[C@H]1C(N)=O)[C@@H](C)O)C(C)C)[C@@H](C)O)N(C)C(=O)[C@H](C)NC(=O)CN(C)C(=O)[C@H](Cc1ccccc1)NC(=O)[C@H](CO)NC(=O)[C@H](CO)NC(=O)[C@H](CCCNC(=N)N)NC(=O)[C@H](CCC(N)=O)NC(=O)[C@H](CC(C)C)NC(=O)[C@H](Cc1ccccc1)NC(=O)[C@H](Cc1c[nH]cn1)NC(=O)[C@H](C)NC(=O)[C@H](CC(C)C)NC(=O)[C@H](CCCNC(=N)N)NC(=O)[C@H](CCC(N)=O)NC(=O)[C@@H](NC(=O)[C@H](C)NC(=O)[C@@H]1CSSC[C@H](NC(=O)[C@H](CCCNC(=N)N)NC(=O)CC[C@H](NC(=O)CCCCCCCCCCCCCCCCCCC(=O)O)C(=O)O)C(=O)N[C@@H](CC(N)=O)C(=O)N[C@@H]([C@@H](C)O)C(=O)N[C@@H](C)C(=O)N[C@@H]([C@@H](C)O)C(=O)N1)[C@@H](C)O` [Compound 61, [19CD]-isoGlu-R-C( )-NTAT-C( )-ATQRLAHFLQRSSF-Gly(Me)-A-Ile(Me)-LSSTEVGSNTP-NH2] ({C20 diacid-γGlu}-RCNTATCATQRLAHFLQRSSF[Sar]A[NMeI]LSSTEVGSNTP-NH2; disulfide 2-7), the pEC50 was 9.92.

For the compound `CC[C@H](C)[C@@H](C(=O)N[C@@H](CC(C)C)C(=O)N[C@@H](CO)C(=O)N[C@@H](CO)C(=O)N[C@H](C(=O)N[C@@H](CCC(=O)O)C(=O)N[C@H](C(=O)NCC(=O)N[C@@H](CO)C(=O)N[C@@H](CC(N)=O)C(=O)N[C@H](C(=O)N1C[C@H](O)C[C@H]1C(N)=O)[C@@H](C)O)C(C)C)[C@@H](C)O)N(C)C(=O)[C@H](C)NC(=O)CN(C)C(=O)[C@H](Cc1ccccc1)NC(=O)[C@H](CO)NC(=O)[C@H](CO)NC(=O)[C@H](CCCNC(=N)N)NC(=O)[C@H](CCC(N)=O)NC(=O)[C@H](CC(C)C)NC(=O)[C@H](Cc1ccccc1)NC(=O)[C@H](Cc1c[nH]cn1)NC(=O)[C@H](C)NC(=O)[C@H](CC(C)C)NC(=O)[C@H](CCCNC(=N)N)NC(=O)[C@H](CCC(=O)O)NC(=O)[C@@H](NC(=O)[C@H](C)NC(=O)[C@@H]1CSSC[C@H](NC(=O)[C@H](CCCNC(=N)N)NC(=O)CC[C@H](NC(=O)CCCCCCCCCCCCCCCCCCC(=O)O)C(=O)O)C(=O)N2CCC[C@H]2C(=O)N[C@@H]([C@@H](C)O)C(=O)N[C@@H](C)C(=O)N[C@@H]([C@@H](C)O)C(=O)N1)[C@@H](C)O` [Compound 63, [19CD]-isoGlu-R-C( )-PTAT-C( )-ATERLAHFLQRSSF-Gly(Me)-A-Ile(Me)-LSSTEVGSNT-Hyp-NH2] ({C20 diacid-γGlu}-RCPTATCATERLAHFLQRSSF[Sar]A[NMeI]LSSTEVGSNT[Hyp]-NH2; disulfide 2-7), the pEC50 was 9.46.

As to `CC[C@H](C)[C@@H](C(=O)N[C@@H](CC(C)C)C(=O)N[C@@H](CO)C(=O)N[C@@H](CO)C(=O)N[C@H](C(=O)N[C@@H](CCC(=O)O)C(=O)N[C@H](C(=O)NCC(=O)N[C@@H](CO)C(=O)N[C@@H](CC(N)=O)C(=O)N[C@H](C(=O)N1CCC[C@H]1C(N)=O)[C@@H](C)O)C(C)C)[C@@H](C)O)N(C)C(=O)[C@H](C)NC(=O)CN(C)C(=O)[C@H](Cc1ccccc1)NC(=O)[C@H](CO)NC(=O)[C@H](CO)NC(=O)[C@H](CCCNC(=N)N)NC(=O)[C@H](CCC(N)=O)NC(=O)[C@H](CC(C)C)NC(=O)[C@H](Cc1ccccc1)NC(=O)[C@H](CC(=O)O)NC(=O)[C@H](C)NC(=O)[C@H](CC(C)C)NC(=O)[C@H](CCCNC(=N)N)NC(=O)[C@H](CCC(=O)O)NC(=O)[C@@H](NC(=O)[C@H](C)NC(=O)[C@@H]1CSSC[C@H](NC(=O)[C@H](CCCNC(=N)N)NC(=O)CC[C@H](NC(=O)CCCCCCCCCCCCCCCCCCC(=O)O)C(=O)O)C(=O)N2CCC[C@H]2C(=O)N[C@@H]([C@@H](C)O)C(=O)N[C@@H](C)C(=O)N[C@@H]([C@@H](C)O)C(=O)N1)[C@@H](C)O` [Compound 67, [19CD]-isoGlu-R-C( )-PTAT-C( )-ATERLADFLQRSSF-Gly(Me)-A-Ile(Me)-LSSTEVGSNTP-NH2] ({C20 diacid-γGlu}-RCPTATCATERLADFLQRSSF[Sar]A[NMeI]LSSTEVGSNTP-NH2; disulfide 2-7), the pEC50 was 9.57.

On to `CC[C@H](C)[C@@H](C(=O)N[C@@H](CC(C)C)C(=O)N[C@@H](CO)C(=O)N[C@@H](CO)C(=O)N[C@H](C(=O)N[C@@H](CCC(=O)O)C(=O)N[C@H](C(=O)NCC(=O)N[C@@H](CO)C(=O)N[C@H](C(=O)N[C@H](C(=O)N1C[C@H](O)C[C@H]1C(N)=O)[C@@H](C)O)[C@@H](C)O)C(C)C)[C@@H](C)O)N(C)C(=O)[C@H](C)NC(=O)CN(C)C(=O)[C@H](Cc1ccccc1)NC(=O)[C@H](CO)NC(=O)[C@H](CO)NC(=O)[C@H](CCCNC(=N)N)NC(=O)[C@H](CCC(N)=O)NC(=O)[C@H](CC(C)C)NC(=O)[C@H](Cc1ccccc1)NC(=O)[C@H](Cc1c[nH]cn1)NC(=O)[C@H](C)NC(=O)[C@H](CC(C)C)NC(=O)[C@H](CCCNC(=N)N)NC(=O)[C@H](CCC(=O)O)NC(=O)[C@@H](NC(=O)[C@H](C)NC(=O)[C@@H]1CSSC[C@H](NC(=O)[C@H](CCCNC(=N)N)NC(=O)CC[C@H](NC(=O)CCCCCCCCCCCCCCCCCCC(=O)O)C(=O)O)C(=O)N2CCC[C@H]2C(=O)N[C@@H]([C@@H](C)O)C(=O)N[C@@H](C)C(=O)N[C@@H]([C@@H](C)O)C(=O)N1)[C@@H](C)O` [Compound 74, [19CD]-isoGlu-R-C( )-PTAT-C( )-ATERLAHFLQRSSF-Gly(Me)-A-Ile(Me)-LSSTEVGSTT-Hyp-NH2] ({C20 diacid-γGlu}-RCPTATCATERLAHFLQRSSF[Sar]A[NMeI]LSSTEVGSTT[Hyp]-NH2; disulfide 2-7), for which the pEC50 was 9.24.

For `CC[C@H](C)[C@@H](C(=O)N[C@@H](CC(C)C)C(=O)N[C@@H](CO)C(=O)N[C@@H](CO)C(=O)N[C@H](C(=O)N[C@@H](CCC(=O)O)C(=O)N[C@H](C(=O)NCC(=O)N[C@@H](CO)C(=O)N[C@@H](CCCC(=O)O)C(=O)N[C@H](C(=O)N1C[C@H](O)C[C@H]1C(N)=O)[C@@H](C)O)C(C)C)[C@@H](C)O)N(C)C(=O)[C@H](C)NC(=O)CN(C)C(=O)[C@H](Cc1ccccc1)NC(=O)[C@H](CO)NC(=O)[C@H](CO)NC(=O)[C@H](CCCNC(=N)N)NC(=O)[C@H](CCC(N)=O)NC(=O)[C@H](CC(C)C)NC(=O)[C@H](Cc1ccccc1)NC(=O)[C@H](Cc1c[nH]cn1)NC(=O)[C@H](C)NC(=O)[C@H](CC(C)C)NC(=O)[C@H](CCCNC(=N)N)NC(=O)[C@H](CCC(=O)O)NC(=O)[C@@H](NC(=O)[C@H](C)NC(=O)[C@@H]1CSSC[C@H](NC(=O)[C@H](CCCNC(=N)N)NC(=O)CC[C@H](NC(=O)CCCCCCCCCCCCCCCCCCC(=O)O)C(=O)O)C(=O)N2CCC[C@H]2C(=O)N[C@@H]([C@@H](C)O)C(=O)N[C@@H](C)C(=O)N[C@@H]([C@@H](C)O)C(=O)N1)[C@@H](C)O` [Compound 76, [19CD]-isoGlu-R-C( )-PTAT-C( )-ATERLAHFLQRSSF-Gly(Me)-A-Ile(Me)-LSSTEVGS-Aad-T-Hyp-NH2] ({C20 diacid-γGlu}-RCPTATCATERLAHFLQRSSF[Sar]A[NMeI]LSSTEVGS[Aad]T[Hyp]-NH2; disulfide 2-7), the pEC50 was 9.36.
